Assay results published in patent publication US10358500B2, “Humanized antibodies that bind LGR5” (Bionomics Inc., priority 2014, dated 2019).

Tests used:
LGR5 [1] = test: LGR5 expression in treated CRC cell lines by flow cytometry; format: cell-based; conditions: 1 um, 72 hrs
Experimental: A panel of CRC cell lines including DLD1, HCT116, LS174t, LoVo, SW48, SW480 and SW620 were treated with a PI3K/mTOR dual inhibitor (NVP) or 2 different cytotoxic agents including SN38 (active metabolite of Irinotecan) or 5FU (5 fluorouracil). Cells were treated with the above agents at 1 um and were harvested after 72 hrs. Cells were then stained with anti-LGR5 Mab conjugated to Alexa Fluor647 and the data were analyzed by flow cytometry using a FACScalibur.

LGR5 [2] = test: LGR5 expression in treated pancreatic cell lines by flow cytometry; format: cell-based
Experimental: In addition to CRC cell lines to further expand the above findings, expression of LGR5 was investigated in a series of pancreatic cell lines treated with relevant standard of care including nab-paclitaxel, gemcitabine and taxol and also small molecule inhibitors targeting most relevant pathways in pancreatic cancer such as inhibitors of PI3K, MEK and GSK3β. The pancreatic cell lines that were tested include: AsPc1, HPAFII, PANC1, BxPC3, CFPAC, PANC10.05, Capan2 and SW1990.

PANC1 cancer stem cells = test: limiting dilution re-implant of treated PANC1 tumors; format: in vivo, mice; conditions: gemcitabine alone
Excerpt: Tumors cells from these treatment groups were harvested, dissociated, pooled and re-implanted in a limiting dilution assay (500, 1500, 4500 or 13500 cells/animal) into a new cohort of CB.17 SCID mice and allowed to grow with no treatment.

AsPC-1 cancer stem cells = test: limiting dilution experiment, AsPC-1 tumors; format: in vivo, mice; conditions: day 40 post treatment, gemcitabine single agent

With CCc1c2c(nc3ccc(O)cc13)-c1cc3c(c(=O)n1C2)COC(=O)[C@]3(O)CC [SN38] the “LGR5 expression by flow cytometry” value (LGR5 [1]; HCT116, LS174t, SW48, SW480 and especially SW620 cells) was “promoted LGR5 expression”.

For Nc1ccn([C@@H]2O[C@H](CO)[C@@H](O)C2(F)F)c(=O)n1 [gemcitabine, reference compound], the “LGR5 expression by flow cytometry” value (LGR5 [2]; PANC1) was “upregulates LGR5”, the frequency of engraftment (PANC1 cancer stem cells; PANC1, 4500 cells) was 40% and the frequency of engraftment (PANC1 cancer stem cells; PANC1, 13500 cells) was 100%. The “percentage of tumor bearing mice” value (AsPC-1 cancer stem cells; AsPC-1, 4500 cells) was 40% and the “percentage of tumor bearing mice” value (AsPC-1 cancer stem cells; AsPC-1, 13500 cells) was 80%.

In the case of CC(=O)O[C@H]1C(=O)[C@@]2(C)[C@H]([C@H](OC(=O)c3ccccc3)[C@]3(O)C[C@H](OC(=O)[C@H](O)[C@@H](NC(=O)c4ccccc4)c4ccccc4)C(C)=C1C3(C)C)[C@]1(OC(C)=O)CO[C@@H]1C[C@@H]2O [taxol], the “LGR5 expression by flow cytometry” value (LGR5 [2]; HPAFII) is reported as “increased LGR5 expression”.

For O=c1[nH]cc(F)c(=O)[nH]1 [5FU, 5 fluorouracil], the “LGR5 expression by flow cytometry” value (LGR5 [1]; any of the CRC lines (DLD1, HCT116, LS174t, LoVo, SW48, SW480, SW620)) was “did not induce LGR5 expression”.
